Patent US7309719B1, “Stabilized pharmaceutical preparation of gamma-aminobutyric acid derivatives and process for preparing the same” (Warner Lambert Company, LLC, priority 1998, dated 2007)

Assays:
[1] = Stability of baclofen granular powders (wet admixture), dehydrated condensate content by HPLC (Example 11); format: physicochemical; details: solid
Method: In this Example and the following Example, a content of the dehydrated condensate thus formed is expressed in terms of % by weight, based on baclofen.
In this Example, the stabilization of baclofen according to the wet admixture with the amino acid was tested for the following Samples (ag) and (ah) of baclofen.
1) Sample (ag) was prepared by wetting 200 mg of baclofen crystals with 0.1 mL of water, forming granular powders by means of a mortar and then drying.
2) Sample (ah) was prepared by wetting 200 mg of baclofen crystals with 0.1 mL of a 2% aqueous solution of L-isoleucine, forming granular powders by means of a mortar and then drying. • Samples (ag) and (ah) prepared as described above and untreated baclofen crystals were stored under the conditions as defined in the following Table 13 and then a content of the dehydrated condensate formed in each of the samples was determined by means of HPLC.

[2] = Stabilizing effect of amino acids on 4-amino-3-substituted-butanoic acid derivatives
[3] = Stability of compacted pregabalin powders, dehydrated condensate content by HPLC (Example 9); format: physicochemical; details: solid
Method: 3) Sample (v) was prepared by dissolving 1 g of pregabalin crystals and 1.47 g of L-valine in water to make up a total volume of 50 mL. • Samples (t), (u) and (v) prepared as described above were stored under the conditions as defined in the following Table 10 and then a content of the dehydrated condensate formed in each of the aqueous solutions was determined by means of HPLC. In this Example and the following Examples, a content of the dehydrated condensate formed is expressed in terms of % by weight, based on pregabalin.
This Example will illustrate the preparation of a stabilized solid pharmaceutical preparation of pregabalin by the addition of the amino acid to pregabalin according to the dry admixture.
1) 1 g of pregabalin crystals was prepared to powdery Sample (aa) in a compacted state by means of a mortar.
2) 1 g of pregabalin crystals was blended with 10 mg of magnesium stearate by means of a mortar to prepare mixed powdery Sample (ab) in a compacted state.
3) 1 g of pregabalin crystals was blended with 30 mg of talc by means of a mortar to prepare mixed powdery Sample (ac) in a compacted state.
4) 1 g of pregabalin crystals was blended with 30 mg of L-leucine by means of a mortar to prepare mixed powdery Sample (ad) in a compacted state. • Samples (aa), (ab), (ac) and (ad) prepared as described above and untreated pregabalin crystals were stored under the conditions as defined in the following Table 11 and then a content of the dehydrated condensate formed in each of the samples was determined by means of HPLC.

[4] = Dehydration reaction (lactam formation) in a dried state at 105° C.; format: physicochemical; details: 105° C. over 2-3 hours
Description: In other words, in the 4-amino-3-substituted-butanoic acid derivative wherein the substituent at the 3-position thereof has a bulky structure, the dehydration reaction could easily be brought about between the amino group and the carboxyl group within the molecule.

Compound: NCC(CC(=O)O)c1ccc(Cl)cc1 (stereo not shown) [Untreated Baclofen]
- content of the dehydrated condensate ([1]; 60° C./1 week (sealed)): 0.36 % by weight, based on baclofen
- content of the dehydrated condensate ([1]; 60° C./2 weeks (sealed)): 0.57 % by weight, based on baclofen
- content of the dehydrated condensate ([1]; 60° C./3 weeks (sealed)): 0.70 % by weight, based on baclofen
- content of the dehydrated condensate ([1]; When initiated): 0.10 % by weight, based on baclofen

Compound: O=C(O)[C@@H]1C[C@@H](O)CN1 [hydroxyproline]
- stabilizing effect as stabilizer for a 4-amino-3-substituted-butanoic acid derivative [2]: weak stabilizing effect

Compound: CC(C)CC(CN)CC(=O)O (stereo not shown) [Untreated Pregabalin, 5-methyl-3-aminomethyl-hexanoic acid]
- content of the dehydrated condensate ([3]; 60° C./2 weeks (sealed)): 0.001 % by weight, based on pregabalin
- content of the dehydrated condensate ([3]; 80° C./1 week (sealed)): 0.006 % by weight, based on pregabalin
- content of the dehydrated condensate ([3]; When initiated): <0.001 % by weight, based on pregabalin

Compound: NCCCC(=O)O [γ-aminobutyric acid]
- dehydration reaction (formation of the corresponding lactam form) [4]: not brought about

Compound: NCC(O)CC(=O)O (stereo not shown) [4-amino-3-hydroxy-butanoic acid]
- dehydration reaction (formation of the corresponding lactam form) [4]: not brought about
